# Literature values, collected in US8445706B2, “Unnatural amino acids capable of covalently modifying protein phosphatases and their use as general and specific inhibitors and probes” (Board of Trustees of Northern Illinois University, priority 2008, dated 2013).
# Details: neutral or basic aqueous solutions; cited from earlier work
compound,measurement,value
O=P(O)(O)C(Br)c1ccccc1 (stereo not drawn) [α-bromobenzylphosphonate],solvolysis,undergoes solvolysis
